Where two headings read alike, the source gives them in different places.
How the values were obtained:
40 L mouse mesothelioma = experiment: Intraperitoneal malignant mesothelioma model, tumor growth and survival, 40 L; assay type: in vivo; settings: 40 L model; compared to saline control
AE17 mouse mesothelioma = experiment: Intraperitoneal malignant mesothelioma model, tumor growth and survival, AE17; assay type: in vivo; settings: compared to saline control
[1] = system: T cells in spleens and tumors of 40 L tumor-bearing mice; experiment: Immune profiling by flow cytometry, 40 L tumor-bearing mice; assay type: in vivo, mouse; settings: for proportion of CD8+ T cells in total live cells: compared to saline control
[2] = system: T cells in spleens, lymph nodes and tumors of AE17 tumor-bearing mice; experiment: Immune profiling by flow cytometry, AE17 tumor-bearing mice; assay type: in vivo, mouse; settings: for proportion of CD8+ T cells in total live cells: compared to saline control
[3] = system: CD8+ T cells of 40 L tumor-bearing mice; experiment: Ex-vivo restimulation with recombinant mesothelin and intracellular IFN-γ detection, 40 L mice; assay type: in vivo, mouse; settings: splenic CD8+ T cells; 40 L model; compared to saline
[4] = system: CD8+ T cells of AE17 tumor-bearing mice; experiment: Ex-vivo restimulation with recombinant mesothelin and intracellular IFN-γ detection, AE17 mice; assay type: in vivo, mouse; settings: AE17 model, compared to saline
[5] = system: GFP-Foxp3 expressing CD4+ splenocytes (Treg cells); settings: AMD3100 5 μg/ml, 24 hours
ovarian cancer = settings: monotherapy in ovarian tumor-bearing mice; cited from earlier work
[6] = 0.01-0.02 mg/kg subcutaneously twice daily for 6 months; cited from earlier work
[7] = tumors, 40 L model, compared to saline
[8] = lymph nodes, AE17 model, compared to saline
[9] = tumors, AE17 model, compared to saline

In the case of c1cc(CN2CCCNCCNCCCNCC2)ccc1CN1CCCNCCNCCCNCC1 [AMD3100, plerixafor], the animal survival (40 L mouse mesothelioma) is reported as “only modest benefit”, the animal survival (AE17 mouse mesothelioma) is reported as “only modest benefit” and the “proportion of PD-1-expressing CD8+ T cells” value ([1]; spleens, 40 L model, compared to saline) is reported as “significantly fewer”. For the same compound, the “proportion of CD8+ T cells in total live cells” value (from here on “proportion of CD8+ T cells”) ([1]; spleens, 40 L model) was “did not increase”, the “proportions of Treg cells” value ([1]; spleens, 40 L tumor-bearing mice) was “did not alter” and the “IL-2+ CD40L+ cells among the Foxp3+ CD25− Treg population” value ([1]; tumors of 40 L mice) was “significantly more”. The “ratio of CD25− cells to CD25+ cells within the Foxp3+ population” value ([1]; tumors of 40 L mice) was “significantly increased”, the “proportion of PD-1-expressing CD8+ T cells” value [1, 7] was “significantly fewer” and the “proportions of Treg” value [1, 7] was “significantly decreased”. For the same compound, the “ratio of CD8+ T cells to Treg” value [1, 7] was “increased”, the “proportion of CD8+ T cells” value ([1]; tumors, 40 L model) was “did not increase” and the “IL-2+ CD40L+ cells among the Foxp3+ CD25− Treg population” value ([2]; lymph nodes of AE17 mice) was “significantly more”. For the same compound, the “ratio of CD25− cells to CD25+ cells within the Foxp3+ population” value ([2]; lymph nodes, AE17 model) was “significantly increased”, the “cell ratio of CD8+ T cells to Treg cells” value [2, 8] was “significantly increased” and the “proportion of PD-1-expressing CD8+ T cells” value [2, 8] was “significantly fewer”. For the same compound, the “proportion of CD8+ T cells” value ([2]; lymph nodes, AE17 model) was “did not increase”, the “Treg in the lymph nodes” value ([2]; lymph nodes, AE17 tumor-bearing mice) was “generally reduced” and the “proportion of PD-1-expressing CD8+ T cells” value ([2]; spleens, AE17 model, compared to saline) was “significantly fewer”. For the same compound, the “proportion of CD8+ T cells” value ([2]; spleens, AE17 model) was “did not increase”, the “proportion of PD-1-expressing CD8+ T cells” value [2, 9] was “significantly fewer” and the “proportions of Treg” value [2, 9] was “significantly decreased”. The “ratio of CD8+ T cells to Treg” value [2, 9] was “increased”, the “proportion of CD8+ T cells” value ([2]; tumors, AE17 model) was “did not increase” and the “mesothelin-specific IFN-γ expression in CD8+ T cells” value (“mesothelin-specific IFN-γ expression” for short) [3] was “did not enhance”. The “mesothelin-specific IFN-γ expression” value ([4]; lymph node CD8+ T cells) was “did not enhance”, the “mesothelin-specific IFN-γ expression” value ([4]; splenic CD8+ T cells) was “did not enhance” and the “conversion of Foxp3+ CD25− Treg into IL-2+ CD40L+ cells” value ([5]; anti-CD3/CD28 antibodies 1 μg/ml, P=0.0015) was “converted more”. The “ratio of the proportion of CD25− cells to CD25+ cells in the Foxp3+ CD4+ population” value ([5]; anti-CD3/CD28 antibodies 1 μg/ml, P=0.0017) was “significantly increased”, the “ratio of the proportion of CD25− cells to CD25+ cells in the Foxp3+ CD4+ population” value ([5]; no anti-CD3/CD28 stimulation) was “did not change” and the “intratumoral Treg cells” value (ovarian cancer) was “selective reduction”. The survival (ovarian cancer) was “survival advantage” and the “safety of long-term, low-dose treatment” value [6] was “safety”.

From patent publication US20200190202A1, “Reprogramming of CD8 T Cells with CXCL12 Signaling Inhibitors” (priority 2017, published 2020)
